“And” between values parts separate entries of the source, which are not always exact repeats. Equal entries are not always repeated. The source made the active and inactive calls. No rule for the calls is given here.
biological target: Ubiquitin-conjugating enzyme E2 N (Homo sapiens) (UniProt P61088); test: analogue potency against UBC13 ubiquitin chains – biochemical, TR-FRET, SAR follow-up (AID 504687); conditions: UBC13 polyubiquitin formation
Sequence (P61088 whole entry, looked up): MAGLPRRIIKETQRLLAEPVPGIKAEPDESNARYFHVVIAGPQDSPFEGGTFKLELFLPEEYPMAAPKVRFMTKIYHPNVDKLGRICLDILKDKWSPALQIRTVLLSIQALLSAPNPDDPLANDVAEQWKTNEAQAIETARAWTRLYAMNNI

SMILES | IC50
O=C(c1ccc(S(=O)(=O)N2CCCC2)cc1)N1CCC(CN2C(=O)c3cccc4cccc(c34)C2=O)CC1 | 4.19 µM
CCCCN(CC)S(=O)(=O)c1ccc(C(=O)N(CCCN(C)C)c2nc3cc(C)cc(C)c3s2)cc1 | 6.23 µM
COC(=O)c1ccc(OCC(O)CN2CCN(CCN3C(=O)c4cccc5cccc(c45)C3=O)CC2)cc1 (stereo not drawn) | 4.61 µM
CC(=O)c1ccccc1OCC(O)CN1CCN(CCN2C(=O)c3cccc4cccc(c34)C2=O)CC1 (stereo not drawn) | 10.5 µM
CC1CN(S(=O)(=O)c2ccc(NC(=O)CCCCCN3C(=O)c4ccccc4C3=O)cc2)CC(C)O1 (stereo not drawn) | inactive
O=C(CCCCn1c(=O)c2ccccc2n(Cc2ccccc2F)c1=O)NC1CCN(Cc2ccccc2)CC1 | 2.99 µM
Cc1ccc(-c2oc3ncnc(N)c3c2-c2ccc(C)cc2)cc1 | 2.7 µM
CCc1ccc(OCC(O)CN2CCC(CN3C(=O)c4cccc5cccc(c45)C3=O)CC2)cc1 (stereo not drawn) | 8.76 µM
Cc1cc(C)c2sc(N(CCCN(C)C)C(=O)c3ccc(S(=O)(=O)N(C)Cc4ccccc4)cc3)nc2c1 | 1.51 µM
COc1ccc(-c2oc3ncnc(N)c3c2-c2ccccc2)cc1 | 2.06 µM
O=C(Nc1ccc(F)c(Cl)c1)C1CCN(c2ncnc3c2nc2n3CCCCC2)CC1 | 6.08 µM
Cc1ccccc1NC(=S)NC(=O)CCCCCN1C(=O)c2ccccc2C1=O | > 100 µM (inactive)
O=C(NCCCN1CCN(c2ccc(F)cc2)CC1)C1CCCN(c2ncnc3c2nc2n3CCCCC2)C1 (stereo not drawn) | 1.92 µM
CCOc1ccc(NC(=O)Cn2c(=O)n(CCCC(=O)NC3CCN(Cc4ccccc4)CC3)c(=O)c3ccccc32)cc1 | 3.06 µM
COc1ccc(CCNC(=O)CCCCCN2C(=O)c3ccccc3C2=O)cc1OC | inactive
CCc1ccc2nc(N(CCCN(C)C)C(=O)c3ccc(S(=O)(=O)N4CCc5ccccc5C4)cc3)sc2c1 | 2.8 µM
O=C(C1CCN(c2ncnc3c2nc2n3CCCCC2)CC1)N1CCN(c2ccccn2)CC1 | inactive
COc1ccc(COCC(O)CN2CCC(CN3C(=O)c4cccc5cccc(c45)C3=O)CC2)cc1OC (stereo not drawn) | 5.6 µM
CCN(Cc1ccccc1)S(=O)(=O)c1ccc(C(=O)N(CCCN(C)C)c2nc3cc4c(cc3s2)OCO4)cc1 | 4.47 µM
O=C(CCCCCN1C(=O)c2ccccc2C1=O)Nc1nc(C2CC2)cs1 | > 100 µM (inactive)
CN(CCNC(=O)C1CCN(c2ncnc3c2nc2n3CCCCC2)CC1)Cc1ccccc1 | 1.65 µM

SMILES | IC50
O=C(C1CCN(c2ncnc3c2nc2n3CCCCC2)CC1)N1CCN(c2ccccc2)CC1 | inactive
COc1cccc2sc(N(CCCN(C)C)C(=O)c3ccc(S(=O)(=O)N4CCc5ccccc5C4)cc3)nc12 | 1.85 µM
CNCc1cc(Br)c(OCC(=O)Nc2ccccc2OC)c(OC)c1 | 6.37 µM
CN(C)CCCN(C(=O)c1ccc(S(=O)(=O)N2CCCCCC2)cc1)c1nc2cc3c(cc2s1)OCCO3 | 2.12 µM
COC(=O)C1=C(NC(=O)CCCCCN2C(=O)c3ccccc3C2=O)SC2CCCC12 (stereo not drawn) | > 100 µM (inactive)
CN(C)CCCN(C(=O)c1ccc(S(=O)(=O)N(C)Cc2ccccc2)cc1)c1nc2cc3c(cc2s1)OCO3 | 2.53 µM
COc1ccc(CCNC(=O)CCCCCN2C(=O)c3ccccc3C2=O)cc1 | inactive
O=C(CCCCn1c(=O)c2ccccc2n(Cc2ccccc2)c1=O)NC1CCN(Cc2ccccc2)CC1 | 1.63 µM
CCOc1ccc2nc(N(CCCN(C)C)C(=O)c3ccc(C(=O)c4ccccc4)cc3)sc2c1 | 3.4 µM
Cc1ccccc1CN1CCC(CNC(=O)C2CCCN(c3ncnc4c3nc3n4CCCCC3)C2)CC1 (stereo not drawn) | 4.69 µM
O=C(C1COc2ccccc2O1)N1CCN(CCN2C(=O)c3cccc4cccc(c34)C2=O)CC1 (stereo not drawn) | > 100 µM (inactive)
CCOC(=O)c1c(NC(=O)COc2ccccc2C#N)sc2c1CC(C)(C)NC2(C)C | 2.35 µM
CCCOC(=O)c1ccc(NC(=O)CCCCCN2C(=O)c3ccccc3C2=O)cc1 | > 100 µM (inactive)
Cc1cc(C)cc(OCCNC(=O)CCCCCN2C(=O)c3ccccc3C2=O)c1 | > 100 µM (inactive)
Cc1nc2ccccc2c(=O)n1NC(=O)c1ccc(OC(F)F)cc1 | 15 µM
O=C(CCCn1c(=O)c2ccccc2n(Cc2ccccc2F)c1=O)NC1CCN(Cc2ccccc2)CC1 | 0.45 µM
CCN(Cc1ccccc1)S(=O)(=O)c1ccc(C(=O)N(CCCN(C)C)c2nc3cc(C)cc(C)c3s2)cc1 | 4.07 µM
O=C(NCC1CCN(Cc2cccc(Cl)c2)CC1)C1CCCN(c2ncnc3c2nc2n3CCCCC2)C1 (stereo not drawn) | 0.93 µM
Cc1ccccc1OCC(O)CN1CCN(CCN2C(=O)c3cccc4cccc(c34)C2=O)CC1 (stereo not drawn) | 12.8 µM
O=C(CCCCCN1C(=O)c2ccccc2C1=O)Nc1ccc(S(=O)(=O)N2CCCCC2)cc1 | 0.47 µM
CN(C)CCCn1c(SCC(=O)Nc2nc(-c3cccc(Br)c3)cs2)nc2ccccc2c1=O | 4.18 µM

SMILES | IC50
CCOc1ccc2nc(N(CCCN(C)C)C(=O)c3ccc(S(=O)(=O)N4CCc5ccccc5C4)cc3)sc2c1 | 3.19 µM
O=C(NCCCN1CCCCC1)C1CCN(c2ncnc3c2nc2n3CCCCC2)CC1 | 4.58 µM
Cc1ccc2nc(N(CCCN(C)C)C(=O)c3ccc(S(=O)(=O)N4CCc5ccccc5C4)cc3)sc2c1 | 4.83 µM
CC1CC(C)CN(C(=O)C2CCN(c3ncnc4c3nc3n4CCCCC3)CC2)C1 (stereo not drawn) | > 100 µM (inactive)
CCN(Cc1ccccc1)S(=O)(=O)c1ccc(C(=O)N(CCCN(C)C)c2nc3cc4c(cc3s2)OCCO4)cc1 | 1.51 µM
O=C(C1CCN(c2ncnc3c2nc2n3CCCCC2)CC1)N1CCOCC1 | inactive
CCCCOC(=O)c1cccc(NC(=O)CCCCCN2C(=O)c3ccccc3C2=O)c1 | inactive
O=C(CCCn1c(=O)c2ccccc2n(Cc2cccc(F)c2)c1=O)NC1CCN(Cc2ccccc2)CC1 | 0.51 µM
COc1ccccc1NC(=S)NC(=O)CCCCCN1C(=O)c2ccccc2C1=O | > 100 µM (inactive)
CN(C)CCCN(C(=O)c1ccc(S(=O)(=O)N2CCCCCC2)cc1)c1nc2ccc(Br)cc2s1 | 5.92 µM
Cc1cccc(OCC(O)CN2CCN(CCN3C(=O)c4cccc5cccc(c45)C3=O)CC2)c1C (stereo not drawn) | 4.76 µM
CN(C)CCCN(C(=O)c1ccc(C(=O)c2ccccc2)cc1)c1nc2cc3c(cc2s1)OCCO3 | 1.6 µM
COc1cccc(NC(=O)CCCCCN2C(=O)c3cccc([N+](=O)[O-])c3C2=O)c1 | > 100 µM (inactive)
COc1cccc(OCC(O)CN2CCN(CCN3C(=O)c4cccc5cccc(c45)C3=O)CC2)c1 (stereo not drawn) | 9.98 µM and 9.03 µM
CCOc1cccc2sc(N(CCCN(C)C)C(=O)c3ccc(S(=O)(=O)N(C)Cc4ccccc4)cc3)nc12 | 4.3 µM
O=C1c2cccc3cccc(c23)C(=O)N1CCN1CCN(CC(O)COCc2ccc(Cl)cc2)CC1 (stereo not drawn) | 1.07 µM
COc1ccc(C(=O)Nn2c(C)nc3ccccc3c2=O)cc1 | 2.36 µM
CC1CCCC(C)N1CCCNC(=O)C1CCCN(c2ncnc3c2nc2n3CCCCC2)C1 (stereo not drawn) | 12.3 µM
O=C(C1CCN(c2ncnc3c2nc2n3CCCCC2)CC1)N1CCC(Cc2ccccc2)CC1 | 15 µM
Cc1cc(C)c2sc(N(CCCN(C)C)C(=O)c3ccc(S(=O)(=O)N(C)C4CCCCC4)cc3)nc2c1 | 7.48 µM
O=C(NCC1CCN(Cc2ccc(Cl)cc2)CC1)C1CCCN(c2ncnc3c2nc2n3CCCCC2)C1 (stereo not drawn) | 4.33 µM

From PubChem BioAssay AID504687 (Sanford-Burnham Center for Chemical Genomics, 2011)
